Measurements taken from ChEMBL document CHEMBL3797202, “Novel Oxindole Sulfonamides and Sulfamides: EPZ031686, the First Orally Bioavailable Small Molecule SMYD3 Inhibitor” (ACS Med Chem Lett, 2016).

Columns and labels:
[1] = molecular target: Histone-lysine N-methyltransferase EZH2 (Homo sapiens) (UniProt Q15910); experiment: Inhibition of EZH2 (unknown origin) at 10 uM relative to control
[2] = molecular target: T1, Histone-lysine N-methyltransferase EHMT2 (Homo sapiens) (UniProt Q96KQ7); experiment: Inhibition of EHMT2 (unknown origin) at 10 uM relative to control
T1 sequence (whole entry): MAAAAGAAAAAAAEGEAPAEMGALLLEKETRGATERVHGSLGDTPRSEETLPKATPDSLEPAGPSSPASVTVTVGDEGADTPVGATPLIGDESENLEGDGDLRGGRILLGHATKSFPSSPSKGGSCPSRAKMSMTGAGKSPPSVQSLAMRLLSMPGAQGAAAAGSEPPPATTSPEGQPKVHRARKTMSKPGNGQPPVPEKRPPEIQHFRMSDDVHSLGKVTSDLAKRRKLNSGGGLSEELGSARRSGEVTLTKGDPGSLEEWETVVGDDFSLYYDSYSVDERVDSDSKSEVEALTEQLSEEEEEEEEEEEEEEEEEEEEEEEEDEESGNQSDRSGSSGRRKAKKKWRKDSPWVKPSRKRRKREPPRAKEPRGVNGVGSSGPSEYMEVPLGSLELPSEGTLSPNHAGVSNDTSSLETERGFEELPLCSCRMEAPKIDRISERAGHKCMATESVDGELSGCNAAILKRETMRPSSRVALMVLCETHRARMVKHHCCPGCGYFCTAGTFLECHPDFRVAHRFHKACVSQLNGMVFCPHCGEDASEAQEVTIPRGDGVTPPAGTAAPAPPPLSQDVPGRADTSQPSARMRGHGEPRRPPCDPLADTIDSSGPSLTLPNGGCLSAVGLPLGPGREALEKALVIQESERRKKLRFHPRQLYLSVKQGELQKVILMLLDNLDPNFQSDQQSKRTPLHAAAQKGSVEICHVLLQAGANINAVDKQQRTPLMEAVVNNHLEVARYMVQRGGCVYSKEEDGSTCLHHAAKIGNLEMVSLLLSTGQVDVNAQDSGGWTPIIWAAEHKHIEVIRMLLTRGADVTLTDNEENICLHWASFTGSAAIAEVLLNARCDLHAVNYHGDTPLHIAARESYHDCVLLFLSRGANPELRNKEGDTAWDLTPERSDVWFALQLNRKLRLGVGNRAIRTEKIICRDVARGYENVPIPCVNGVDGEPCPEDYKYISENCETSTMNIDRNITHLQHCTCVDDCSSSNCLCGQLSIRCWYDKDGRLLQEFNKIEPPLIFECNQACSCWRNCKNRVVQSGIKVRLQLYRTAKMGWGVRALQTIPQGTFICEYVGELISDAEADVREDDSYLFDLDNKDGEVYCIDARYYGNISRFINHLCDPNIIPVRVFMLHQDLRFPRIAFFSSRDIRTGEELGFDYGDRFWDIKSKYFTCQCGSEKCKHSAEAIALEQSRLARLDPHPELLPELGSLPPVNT

[3] = molecular target: T2, Histone-lysine N-methyltransferase EZH1 (Homo sapiens) (UniProt Q92800); experiment: Inhibition of EZH1 (unknown origin) at 10 uM relative to control
T2 sequence (whole entry): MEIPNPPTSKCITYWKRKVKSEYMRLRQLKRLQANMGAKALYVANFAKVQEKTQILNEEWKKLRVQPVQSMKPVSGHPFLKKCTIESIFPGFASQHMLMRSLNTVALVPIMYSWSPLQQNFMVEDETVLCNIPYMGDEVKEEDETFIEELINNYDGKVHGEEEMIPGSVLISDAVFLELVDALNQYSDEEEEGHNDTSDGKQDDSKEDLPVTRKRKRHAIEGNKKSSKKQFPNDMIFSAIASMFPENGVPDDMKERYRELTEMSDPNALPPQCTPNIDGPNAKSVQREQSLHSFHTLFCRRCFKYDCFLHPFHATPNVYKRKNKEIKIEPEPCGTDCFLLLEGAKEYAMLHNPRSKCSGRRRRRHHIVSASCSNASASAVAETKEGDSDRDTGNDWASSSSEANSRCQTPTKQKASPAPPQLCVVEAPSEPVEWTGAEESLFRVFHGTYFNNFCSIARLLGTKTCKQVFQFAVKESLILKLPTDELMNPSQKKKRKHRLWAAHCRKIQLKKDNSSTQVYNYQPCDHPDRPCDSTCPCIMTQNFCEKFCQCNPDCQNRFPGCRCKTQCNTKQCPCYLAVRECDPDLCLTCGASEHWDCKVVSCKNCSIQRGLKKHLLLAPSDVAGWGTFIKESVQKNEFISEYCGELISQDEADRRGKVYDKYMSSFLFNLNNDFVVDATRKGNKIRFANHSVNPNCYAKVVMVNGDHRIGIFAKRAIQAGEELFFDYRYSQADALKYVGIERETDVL

Measured: inhibition

Sequence of Histone-lysine N-methyltransferase EZH2 (Homo sapiens) (Q15910 whole entry, looked up): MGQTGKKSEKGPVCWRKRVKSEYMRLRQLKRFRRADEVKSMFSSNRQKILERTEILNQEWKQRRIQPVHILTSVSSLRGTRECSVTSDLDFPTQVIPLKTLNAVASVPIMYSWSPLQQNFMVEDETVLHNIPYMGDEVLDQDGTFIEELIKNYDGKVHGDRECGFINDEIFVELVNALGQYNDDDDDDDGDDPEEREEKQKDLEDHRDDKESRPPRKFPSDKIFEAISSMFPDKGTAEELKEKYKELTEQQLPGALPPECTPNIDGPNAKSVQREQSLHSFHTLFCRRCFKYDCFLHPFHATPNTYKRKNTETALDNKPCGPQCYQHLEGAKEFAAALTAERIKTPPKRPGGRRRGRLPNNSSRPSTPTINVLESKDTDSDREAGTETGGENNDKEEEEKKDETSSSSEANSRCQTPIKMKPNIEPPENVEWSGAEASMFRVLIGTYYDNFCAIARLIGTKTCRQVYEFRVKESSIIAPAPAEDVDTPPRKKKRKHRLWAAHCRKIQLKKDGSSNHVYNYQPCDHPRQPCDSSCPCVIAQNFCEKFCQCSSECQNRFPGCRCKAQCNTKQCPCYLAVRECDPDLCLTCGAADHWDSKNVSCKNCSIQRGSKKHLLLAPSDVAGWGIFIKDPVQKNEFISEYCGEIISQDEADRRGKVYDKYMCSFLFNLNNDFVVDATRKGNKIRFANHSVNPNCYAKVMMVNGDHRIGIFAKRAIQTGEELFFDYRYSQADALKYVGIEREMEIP

O=C1Cc2cc(C(=O)N[C@H]3C[C@H]4CC[C@@H](C3)N4S(=O)(=O)CC3CCN(CCCC(F)(F)F)CC3)c(Cl)cc2N1
< 30%: [1] | [2] | [3]

O=C1Cc2cc(C(=O)N[C@H]3C[C@H]4CC[C@@H](C3)N4S(=O)(=O)N3CCC(NCc4ccccc4)CC3)c(Cl)cc2N1
< 30%: [1] | [2] | [3]
